Results from patent US20110230476A1, “PI3 KINASE INHIBITORS AND USES THEREOF” (AVILA THERAPEUTICS, INC., priority 2009, published 2011).

Molecular target: T1, PI3Kα (p110α/p85α) (Homo sapiens, UniProt P42336)
T1 construct: purchased BPS Bioscience (San Diego, Calif.) or Millipore (Billerica, Mass.)
Test: HTRF assay, potency against active PI3Kα
Format: biochemical
Settings: HTRF; [ATP]=50 μM, [di-C8-PIP2]=10 μM; 30 min pre-incubation; read-out: PI3Kα Inhibition
Method in brief: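 IC50 came from a variable-slope fit of % inhibition, calculated from the HTRF emission ratio relative to wells with and without enzyme. Reactions with the active enzyme complex ran 30-60 minutes at 25 °C after ATP addition before stop and detection reagents.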

T1 sequence (P42336 whole entry): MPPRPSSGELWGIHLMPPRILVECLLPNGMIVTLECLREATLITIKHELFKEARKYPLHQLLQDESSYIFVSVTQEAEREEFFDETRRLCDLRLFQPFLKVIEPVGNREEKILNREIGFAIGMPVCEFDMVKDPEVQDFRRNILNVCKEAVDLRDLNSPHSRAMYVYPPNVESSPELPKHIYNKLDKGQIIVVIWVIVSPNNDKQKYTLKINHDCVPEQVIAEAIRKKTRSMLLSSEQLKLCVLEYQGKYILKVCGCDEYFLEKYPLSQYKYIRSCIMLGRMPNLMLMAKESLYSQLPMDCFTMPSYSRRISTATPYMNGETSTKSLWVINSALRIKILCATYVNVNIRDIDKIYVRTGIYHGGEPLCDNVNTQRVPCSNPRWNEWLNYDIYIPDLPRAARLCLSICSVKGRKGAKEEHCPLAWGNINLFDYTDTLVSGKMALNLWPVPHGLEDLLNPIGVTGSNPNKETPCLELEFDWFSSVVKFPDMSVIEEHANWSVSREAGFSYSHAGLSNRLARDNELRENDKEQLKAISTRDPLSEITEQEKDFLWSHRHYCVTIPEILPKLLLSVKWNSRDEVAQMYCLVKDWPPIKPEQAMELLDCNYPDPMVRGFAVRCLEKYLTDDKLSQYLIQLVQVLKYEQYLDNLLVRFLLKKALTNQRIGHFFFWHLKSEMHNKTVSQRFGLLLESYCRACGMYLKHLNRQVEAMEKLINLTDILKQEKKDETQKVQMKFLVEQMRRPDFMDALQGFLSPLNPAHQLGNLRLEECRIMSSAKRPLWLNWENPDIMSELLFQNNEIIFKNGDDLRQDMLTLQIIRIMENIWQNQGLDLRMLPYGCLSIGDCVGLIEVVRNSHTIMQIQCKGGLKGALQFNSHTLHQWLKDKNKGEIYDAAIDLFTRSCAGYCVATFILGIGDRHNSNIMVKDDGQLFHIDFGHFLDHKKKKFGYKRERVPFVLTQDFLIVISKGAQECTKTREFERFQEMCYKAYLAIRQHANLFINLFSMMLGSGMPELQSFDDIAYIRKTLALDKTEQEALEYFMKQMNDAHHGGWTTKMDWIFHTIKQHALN
T1 sequence (P27986 whole entry partner): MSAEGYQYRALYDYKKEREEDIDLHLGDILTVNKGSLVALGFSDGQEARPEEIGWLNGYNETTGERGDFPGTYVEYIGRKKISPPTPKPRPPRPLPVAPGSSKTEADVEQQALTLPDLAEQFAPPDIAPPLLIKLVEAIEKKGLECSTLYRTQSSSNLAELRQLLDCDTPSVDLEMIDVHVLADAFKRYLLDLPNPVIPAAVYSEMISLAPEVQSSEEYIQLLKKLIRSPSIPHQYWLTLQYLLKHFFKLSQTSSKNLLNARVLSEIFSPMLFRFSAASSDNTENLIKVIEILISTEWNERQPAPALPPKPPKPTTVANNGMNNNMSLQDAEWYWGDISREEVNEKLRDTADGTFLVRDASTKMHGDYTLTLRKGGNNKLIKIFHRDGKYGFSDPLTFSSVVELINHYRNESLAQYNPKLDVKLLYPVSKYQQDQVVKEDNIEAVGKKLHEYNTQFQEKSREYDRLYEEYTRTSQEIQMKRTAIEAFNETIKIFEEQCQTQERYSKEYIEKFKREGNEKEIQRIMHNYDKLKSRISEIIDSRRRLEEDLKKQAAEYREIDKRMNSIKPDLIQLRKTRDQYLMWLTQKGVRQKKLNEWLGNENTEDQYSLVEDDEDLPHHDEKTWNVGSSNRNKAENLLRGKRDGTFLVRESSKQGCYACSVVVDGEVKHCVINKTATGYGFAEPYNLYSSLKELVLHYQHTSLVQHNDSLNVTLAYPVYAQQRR

| Compound | IC50 |
| --- | --- |
| C=CC(=O)NCc1ccc(OC)c(-n2c(CSc3ncnc4[nH]cnc34)nc3cccc(Cl)c3c2=O)c1 [I-5, N-(3-(2-((9H-purin-6-ylthio)methyl)-5-chloro-4-oxoquinazolin-3(4H)-yl)-4-methoxybenzyl)acrylamide] | > 1 µM |
| C=CC(=O)N[C@H]1CC[C@H](C(=O)N2CCN(Cc3cc4nc(-c5cccc6[nH]ncc56)nc(N5CCOCC5)c4s3)CC2)CC1 [II-a-100] | 0.1 to 1 µM |
| C/C=C/C(=O)CCC(=O)N1Cc2ccc(-c3cc4nc(-c5cccc(O)c5)nc(N5CCOCC5)c4s3)cc2C1 [II-a-68, (E)-1-(5-(2-(3-hydroxyphenyl)-4-morpholinothieno[3,2-d]pyrimidin-6-yl)isoindolin-2-yl)hept-5-ene-1,4-dione] | < 0.01 µM |
| O=C(/C=C/c1ccccc1)CCC(=O)N1CCC(O)(c2cc3nc(-c4cccc5[nH]ncc45)nc(N4CCOCC4)c3s2)CC1 [II-a-136, (E)-1-(4-(2-(1H-indazol-4-yl)-4-morpholinothieno[3,2-d]pyrimidin-6-yl)-4-hydroxypiperidin-1-yl)-6-phenylhex-5-ene-1,4-dione] | 0.1 to 1 µM |
| CN(C)C/C=C/C(=O)NC1CCN(c2ccc(-c3cc4nc(-c5cccc(O)c5)nc(N5CCOCC5)c4s3)cc2)CC1 [II-a-150, (E)-4-(dimethylamino)-N-(1-(4-(2-(3-hydroxyphenyl)-4-morpholinothieno[3,2-d]pyrimidin-6-yl)phenyl)piperidin-4-yl)but-2-enamide] | 0.01 to 0.1 µM |
| CC(C)=CC(=O)CCC(=O)N1CCN(c2ccc(-c3ccnc4ccc(/C=C5\SC(=O)NC5=O)cc34)cn2)CC1 [V-18, (Z)-5-((4-(6-(4-(6-methyl-4-oxohept-5-enoyl)piperazin-1-yl)pyridin-3-yl)quinolin-6-yl)methylene)thiazolidine-2,4-dione] | < 0.01 µM |
| CC(C)=CC(=O)CCC(=O)N1CC=C(c2cc3nc(-c4cnc(N)nc4)nc(N4CCOCC4)c3s2)CC1 [II-a-165, 1-(4-(2-(2-aminopyrimidin-5-yl)-4-morpholinothieno[3,2-d]pyrimidin-6-yl)-5,6-dihydropyridin-1(2H)-yl)-6-methylhept-5-ene-1,4-dione] | 0.01 to 0.1 µM |
| CC(C)OC/C=C/C(=O)CCC(=O)N1CCN(Cc2cc3nc(-c4cccc5[nH]ncc45)nc(N4CCOCC4)c3s2)CC1 [II-a-62, (E)-1-(4-((2-(1H-indazol-4-yl)-4-morpholinothieno[3,2-d]pyrimidin-6-yl)methyl)piperazin-1-yl)-7-isopropoxyhept-5-ene-1,4-dione] | 0.01 to 0.1 µM |
| C/C=C/C(=O)CCCC(=O)NCC(=O)N1CC=C(c2cc3nc(-c4cccc5[nH]ncc45)nc(N4CCOCC4)c3s2)CC1 [II-a-61, (E)-N-(2-(4-(2-(1H-indazol-4-yl)-4-morpholinothieno[3,2-d]pyrimidin-6-yl)-5,6-dihydropyridin-1(2H)-yl)-2-oxoethyl)-5-oxooct-6-enamide] | < 0.01 µM |
| C=CC(=O)NCc1ccc(-c2cc3nc(-c4cccc(O)c4)nc(N4CCOCC4)c3s2)cc1 [II-a-65, N-(4-(2-(3-hydroxyphenyl)-4-morpholinothieno[3,2-d]pyrimidin-6-yl)benzyl)acrylamide] | < 0.01 µM |
| CC(C)=CC(=O)C(F)(F)C(F)(F)C(=O)N1CCN(Cc2cc3nc(-c4cccc5[nH]ncc45)nc(N4CCOCC4)c3s2)CC1 [II-a-157, 1-(4-((2-(1H-indazol-4-yl)-4-morpholinothieno[3,2-d]pyrimidin-6-yl)methyl)piperazin-1-yl)-2,2,3,3-tetrafluoro-6-methylhept-5-ene-1,4-dione] | 0.1 to 1 µM |
| C/C=C/C(=O)CCC(=O)NC1CCN(c2ccc(-c3cc4nc(-c5cccc(O)c5)nc(N5CCOCC5)c4s3)cc2)CC1 [II-a-109, (E)-N-(1-(4-(2-(3-hydroxyphenyl)-4-morpholinothieno[3,2-d]pyrimidin-6-yl)phenyl)piperidin-4-yl)-4-oxohept-5-enamide] | < 0.01 µM |
| CCCC(=O)CCC(=O)N1CCC(n2nc(-c3ccc(OC)c(OC)c3)c3c(N)ncnc32)CC1 [XI^R-1, 1-(4-(4-amino-3-(3,4-dimethoxyphenyl)-1H-pyrazolo[3,4-d]pyrimidin-1-yl)piperidin-1-yl)heptane-1,4-dione] | > 1 µM |
| C/C=C/C(=O)CCC(=O)N1CCN(c2ccc(-c3ccnc4ccc(/C=C5\SC(=O)NC5=O)cc34)cc2)CC1 [V-15, (Z)-5-((4-(4-(4-((E)-4-oxohept-5-enoyl)piperazin-1-yl)phenyl)quinolin-6-yl)methylene)thiazolidine-2,4-dione] | 0.01 to 0.1 µM |
| C/C=C/C(=O)CCC(=O)NCCCC(=O)N1CCN(Cc2cc3nc(-c4cccc5[nH]ncc45)nc(N4CCOCC4)c3s2)CC1 [II-a-19, (E)-N-(4-(4-((2-(1H-indazol-4-yl)-4-morpholinothieno[3,2-d]pyrimidin-6-yl)methyl)piperazin-1-yl)-4-oxobutyl)-4-oxohept-5-enamide] | 0.01 to 0.1 µM |
| C=CC(=O)Nc1ccc(C(=O)N2CC=C(c3cc4nc(-c5cnc(N)nc5)cc(C5=CCOCC5)c4s3)CC2)cc1 [II-g-5, N-(4-(4-(5-(2-aminopyrimidin-5-yl)-7-(3,6-dihydro-2H-pyran-4-yl)thieno[3,2-b]pyridin-2-yl)-1,2,3,6-tetrahydropyridine-1-carbonyl)phenyl)acrylamide] | > 1 µM |

More lines, now with the values ahead:

| IC50 | Compound |
| --- | --- |
| > 1 µM | C/C=C/C(=O)CCC(=O)N1CCC(n2nc(-c3ccc(OC)c(OC)c3)c3c(N)ncnc32)CC1 [XI-1, (E)-1-(4-(4-amino-3-(3,4-dimethoxyphenyl)-1H-pyrazolo[3,4-d]pyrimidin-1-yl)piperidin-1-yl)hept-5-ene-1,4-dione] |
| 0.1 to 1 µM | CC(C)=CC(=O)CN1CCN(C2CCN(c3cc(-c4cnc(N)nc4)nc(N4CCOCC4)c3)CC2)CC1 [XII-34, 1-(4-(1-(2-(2-aminopyrimidin-5-yl)-6-morpholinopyridin-4-yl)piperidin-4-yl)piperazin-1-yl)-4-methylpent-3-en-2-one] |
| > 1 µM | CC(C)=CC(=O)CCc1ccc(C#Cc2cc(-c3cccc4[nH]ncc34)nc(N3CCOCC3)c2)cc1 [XII-19, 1-(4-((2-(1H-indazol-4-yl)-6-morpholinopyridin-4-yl)ethynyl)phenyl)-5-methylhex-4-en-3-one] |
| 0.1 to 1 µM | CC(C)=CC(=O)CCC(=O)N1CCN(Cc2cc(-c3cnc(N)nc3)nc(N3CCOCC3)c2)CC1 [XII-1, 1-(4-((2-(2-aminopyrimidin-5-yl)-6-morpholinopyridin-4-yl)methyl)piperazin-1-yl)-6-methylhept-5-ene-1,4-dione] |
| < 0.01 µM | CC(C)=CC(=O)C(=O)Nc1ccc(C#Cc2cc(-c3cnc(N)nc3)nc(N3CCOCC3)c2)cc1 [XII-22, N-(4-((2-(2-aminopyrimidin-5-yl)-6-morpholinopyridin-4-yl)ethynyl)phenyl)-4-methyl-2-oxopent-3-enamide] |
| > 1 µM | COc1ccc(-c2nn(C3CCN(C(=O)CCCC(=O)/C=C/c4ccccc4)CC3)c3ncnc(N)c23)cc1OC [XI-5] |
| > 1 µM | C=CC(=O)NCCC(=O)N1CCC[C@@H](n2nc(-c3cc4cc(O)ccc4[nH]3)c3c(N)ncnc32)C1 [XI-4, (R)—N-(3-(3-(4-amino-3-(5-hydroxy-1H-indol-2-yl)-1H-pyrazolo[3,4-d]pyrimidin-1-yl)piperidin-1-yl)-3-oxopropyl)acrylamide] |
| 0.01 to 0.1 µM | COc1c(OCCNC(=O)CCC(=O)/C=C/c2ccccc2)ccc2c1N=C(NC(=O)c1cccnc1)N1CCN=C21 [IX-3, (E)-N-(7-methoxy-8-(2-(4-oxo-6-phenylhex-5-enamido)ethoxy)-2,3-dihydroimidazo[1,2-c]quinazolin-5-yl)nicotinamide] |
